Publication PMC11467737, “Osteocalcin binds to a GPRC6A Venus fly trap allosteric site to positively modulate GPRC6A signaling” (FASEB BioAdvances, 2024)
Residue numbers refer to the chain shown, from its start. Bridge positions count the residues as written; N and C are the ends. Ends that are not written are not given here.

How the values were obtained:
Assay type in all cases: cell-based
H355P hGPRC6A [1] = molecular target: T1, H355P hGPRC6A (Homo sapiens, UniProt Q5T6X5, H355P); experiment: cAMP accumulation in HEK-293 cells transfected with H355P hGPRC6A; settings: H355P mutant; for cAMP accumulation by Ocn small fragments: fragment at 20 nM, Figure 6C
T1 construct: expressed in transfected cells; host or cells: HEK-293, pcDNA3
T1 sequence (Q5T6X5 19-926 H355P): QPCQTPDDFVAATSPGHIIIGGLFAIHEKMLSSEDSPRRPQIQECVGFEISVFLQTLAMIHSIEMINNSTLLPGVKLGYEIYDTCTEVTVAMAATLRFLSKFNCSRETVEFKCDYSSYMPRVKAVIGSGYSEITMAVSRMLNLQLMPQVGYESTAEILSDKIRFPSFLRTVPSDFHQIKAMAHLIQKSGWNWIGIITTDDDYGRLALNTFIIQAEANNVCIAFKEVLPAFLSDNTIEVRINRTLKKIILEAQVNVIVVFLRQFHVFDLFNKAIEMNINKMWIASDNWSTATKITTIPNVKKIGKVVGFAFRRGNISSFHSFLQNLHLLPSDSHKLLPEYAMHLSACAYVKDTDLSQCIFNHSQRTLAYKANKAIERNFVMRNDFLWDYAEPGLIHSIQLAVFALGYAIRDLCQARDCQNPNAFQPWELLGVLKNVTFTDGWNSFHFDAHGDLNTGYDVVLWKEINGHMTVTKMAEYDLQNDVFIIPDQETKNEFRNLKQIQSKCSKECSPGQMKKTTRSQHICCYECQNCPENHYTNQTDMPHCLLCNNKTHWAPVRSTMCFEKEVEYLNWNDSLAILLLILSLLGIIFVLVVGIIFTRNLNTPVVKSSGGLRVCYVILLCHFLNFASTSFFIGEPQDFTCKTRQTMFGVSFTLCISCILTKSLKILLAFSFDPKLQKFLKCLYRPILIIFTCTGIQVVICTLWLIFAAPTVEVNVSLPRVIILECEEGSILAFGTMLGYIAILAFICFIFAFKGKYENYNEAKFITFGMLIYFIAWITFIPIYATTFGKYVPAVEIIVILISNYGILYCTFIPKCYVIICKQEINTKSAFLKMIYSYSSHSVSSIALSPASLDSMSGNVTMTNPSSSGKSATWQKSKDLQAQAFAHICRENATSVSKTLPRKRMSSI
Protocol: HEK‐293 transfected with human GPRC6A isoform cDNA plasmids cells (10^5 cells/well)[30] were cultured in 24‐well plates in DMEM supplemented with 10% fetal bovine serum and 1% penicillin/streptomycin (100 U/mL of penicillin and 100 μg/mL of streptomycin) for 48 h followed by 4 h incubation in DMEM/F12 containing 0.1% BSA and 0.5 mM IBMX to achieve quiescence and preventing cAMP degradation. Quiescent cells were treated with vehicle control, various ligands at concentration as indicated for 40 min at 37°C. Then, the reaction was stopped, and the cells lysed with 0.5 mL 0.1 N HCl. cAMP levels were measured by using Cyclic AMP EIA kit (Cayman Chemical; Ann Arbor, MA, USA) following the manufacture's protocol.
(§1) In‐vitro mutagenesis by PCR‐mediated recombination QuikChange II XL Site‐Directed Mutagenesis Kit (Agilent) was performed using the cDNA of human GPRC6A cloned in the vector pcDNA3 (Invitrogen) as a template. The primer sets are as follows. K352E.sen: […]; K352E.antisen: […]; H355P.sen: […]; H355P.antisen: […]; K352E/H355P.sen: […]; and K352E/H355P.antisen: […]. All mutants were confirmed by sequencing.

K352E hGPRC6A = molecular target: T2, K352E hGPRC6A (Homo sapiens, UniProt Q5T6X5, K352E); experiment: ERK activation in HEK-293 cells transfected with K352E hGPRC6A; settings: K352E mutant; for ERK activation by Ocn small fragments: fragment at 20 nM, Figure 6D
T2 construct: expressed in transfected cells; host or cells: HEK-293, pcDNA3
T2 sequence (Q5T6X5 19-926 K352E): T1 sequence (Q5T6X5 19-926 H355P) with K334E, P337H
Protocol: (§2) All culture reagents were from Invitrogen (Waltham, MA, USA). Human embryonic kidney HEK‐293 cells were obtained from American Type Culture Collection and cultured in DMEM medium supplemented with 10% fetal bovine serum and 1% Penicillin/Streptomycin (P/S). Briefly, HEK‐293 cells transfected with/without human GPRC6A isoforms cDNA plasmids were starved by overnight incubation in serum‐free DMEM/F12 containing 0.1% bovine serum albumin (BSA) and stimulated with various ligands at different doses. ERK activation was assessed 20 min after treatment by using ERK1/2 (phospho‐T203/Y204) ELISA Kit (Invitrogen; Waltham, MA, USA) corrected for the amount of total ERK using ERK1/2 (Total) ELISA Kit (Invitrogen; Waltham, MA, USA) to measure ERK levels.
as §1

H355P hGPRC6A [2] = molecular target: T1, H355P hGPRC6A; experiment: ERK activation in HEK-293 cells transfected with H355P hGPRC6A; settings: H355P mutant; for ERK activation by Ocn small fragments: fragment at 20 nM, Figure 6D
Protocol: as §2, §1

Row | cAMP accumulation by Ocn small fragments (H355P hGPRC6A [1]) | ERK activation by Ocn small fragments (K352E hGPRC6A) | ERK activation by Ocn small fragments (H355P hGPRC6A [2]) | cAMP accumulation, dose response of full-length Ocn, versus wild-type receptor (H355P hGPRC6A [1]; Figure 6A) | ERK phosphorylation, dose response of full-length Ocn, versus wild-type receptor (K352E hGPRC6A; Figure 6B) | ERK phosphorylation, dose response of full-length Ocn, versus wild-type receptor (H355P hGPRC6A [2]; Figure 6B) | Substance
1 | no response | no response | no response | – | – | – | REVCELNPDC (disulfide 4-10 (inferred)) [Ocn 20–29, synthesized human Ocn decapeptide fragment located in the middle of the protein]
2 | significantly attenuated | significantly attenuated | significantly attenuated | – | – | – | RFYGPV [Ocn 44–49, synthesized human Ocn C‐terminal hexapeptide]
3 | – | – | – | significantly decreased | significantly decreased | significantly decreased | osteocalcin (YLYQWLGAPVPYPDPLEPRREVCELNPDCDELADHIGFQEAYRRFYGPV; not fully specified; ends and bridges not checked; UniProt P02818 52-100, looked up) [Ocn 1–49, full human Ocn (49 aa) synthesized by BioMatik; methods also describe decarboxylated Ocn purified from bovine tibial bone, reference compound]
